Measurements: patent US20250049809A1, “INHIBITORS OF MUTANT IDH1 AND IDH2” (Board of Regents, The University of Texas System, priority 2023, published 2025)

Assays:
mIDH2R140Q = mIDH2R140Q (Homo sapiens (Human), UniProt P48735, R140Q); test: mIDH2 R140Q enzymatic activity assay (NADPH fluorescence); type: biochemical; details: enzyme assay, 1 hour preincubation; read-out: IDH2R140Q IC50
Method: The enzymatic activity of mIDH2R140Q was assessed by measuring the fluorescence of the NADPH. The assay was performed in 384 well, white ProxiPlates (PerkinElmer, 6008280) in assay buffer containing 50 mM Hepes (Life Technologies, 15630080), 50 mM KCl (Teknova, P0327), 10 mM MgCl2 (Sigma-Aldrich, M1028), 1 mM DTT (Sigma-Aldrich, 43815), 0.02% BSA (Sigma-Aldrich, A3059) at pH 7.5. The final reaction volume was 10 μL. Stock solutions of the test compounds were prepared in 100% DMSO (Sigma, D2650) and serially diluted 1:3 using 100% DMSO. 50 nL of compound were then transferred to the assay plate using the Beckman Coulter ECHO 650 Acoustic Liquid Handler for a final DMSO concentration of 0.5%. 5 μL of a mIDH2R140Q and NADPH (Santa Cruz, SC202725C) mixture were added to the assay plate for a final concentration of 3 nM and 10 μM, respectively. 5 μL of NADPH alone were added to negative control wells followed by a 1 hour preincubation at room temperature. 5 μL of alphaketoglutarate (Sigma-Aldrich, K1128) were added to the assay plate for a final concentration of 300 μM. Fluorescence of NADPH (excitation: 350 nm, emission 450 nm) was immediately measured kinetically for approximately 150 minutes using the BioTek Synergy Neo plate reader.

TF1 IDH2R140Q = TF1 IDH2R140Q (Homo sapiens (Human), UniProt P48735, R140Q); test: TF1 IDH2 R140Q 2-HG cellular assay; type: cell-based; details: extracellular 2HG, 24 hr treatment, IDH2 mutant-TF1 isogenic cell line
Method: The IDH2 mutant-TF1 isogenic cell line (ATCC CRL-20031G) used to test cellular inhibition is an erythroblast cell line that was isolated from the marrow of a patient with erythroleukemia with the IDH2R140Q mutation. These cells are maintained in RPMI-1640 (ATCC 30-2001) culture media with 10% FBS, 10 U/mL Penicillin-Streptomycin, and 2 ng/mL GM-CSF. Thirty thousand cells are plated in polystyrene tissue culture treated 384 well cell culture plates (PerkinElmer 6007680) (30,000 cells/well) approximately 2 hours before compound treatment. Cells are then treated with different concentrations of test compounds (5 μM to 0.3 pM) for 24 hr. Extracellular 2HG levels are measured from cell culture media. For analyte extraction, 30 μL of culture media is transferred to 120 μL 100% acetonitrile in a deep 384 well plate and mixed well, followed by 5 min centrifugation at 3700 rpm at room temperature. 100 μL of supernatant is transferred to a flat bottom 384 well plate. Samples are run on the Agilent RapidFire-Mass Spectrometry instrument to detect 2HG levels. The samples from each well were aspirated for 600 ms and loaded onto a HILIC solid-phase extraction cartridge (Agilent) followed by a wash step for 3000 ms with 90% acetonitrile containing 5 mM ammonium acetate. Analytes were then eluted off the cartridge into the Agilent 6460 Triple Quad mass spectrometer with a 4500 ms elution step using 30% acetonitrile containing 5 mM ammonium acetate. The HILIC cartridge was then re-equilibrated by 90% acetonitrile containing 5 mM ammonium acetate for 500 ms. The 2HG was detected by an Agilent 6460 Triple Quad mass spectrometer in negative ion mode. Multiple reaction monitoring was used to quantify 2HG using the precursor ion and product ion at m/z 147.03 and 128.9, respectively. The percent activity of each sample is calculated by using DMSO and control compound treated references, and IC50 values are obtained using the GeneData Screener data analysis program.

mIDH1R132H = mIDH1R132H (Homo sapiens (Human), UniProt O75874, R132H); test: mIDH1 R132H enzymatic activity assay (NADPH fluorescence); type: biochemical; details: enzyme assay; read-out: IDH1R132H IC50
Method: The enzymatic activity of mIDH1R132H was assessed by measuring the fluorescence of the NADPH. The assay was performed in 384 well, white ProxiPlates (PerkinElmer, 6008280) in assay buffer containing 50 mM Hepes (Life Technologies, 15630080), 50 mM KCl (Teknova, P0327), 10 mM MgCl2 (Sigma-Aldrich, M1028), 1 mM DTT (Sigma-Aldrich, 43815), 0.02% BSA (Sigma-Aldrich, A3059) at pH 7.5. The final reaction volume was 10 μL. Stock solutions of the test compounds were prepared in 100% DMSO (Sigma, D2650) and serially diluted 1:3 using 100% DMSO. 50 nL of compound were then transferred to the assay plate using the Beckman Coulter ECHO 650 Acoustic Liquid Handler for a final DMSO concentration of 0.5%. […] a mIDH1R132H and NADPH (Santa Cruz, SC202725C) mixture were added to the assay plate for a final concentration of 10 nM and 20 μM, respectively. 5 μL of NADPH alone were added to negative control wells. 5 μL of alphaketoglutarate (Sigma-Aldrich, K1128) were added to the assay plate for a final concentration of 200 μM. Fluorescence of NADPH (excitation: 350 nm, emission 450 nm) was immediately measured kinetically for approximately 60 minutes using the BioTek Synergy Neo plate reader.

Chain of mIDH2R140Q (P48735 40-452 R140Q): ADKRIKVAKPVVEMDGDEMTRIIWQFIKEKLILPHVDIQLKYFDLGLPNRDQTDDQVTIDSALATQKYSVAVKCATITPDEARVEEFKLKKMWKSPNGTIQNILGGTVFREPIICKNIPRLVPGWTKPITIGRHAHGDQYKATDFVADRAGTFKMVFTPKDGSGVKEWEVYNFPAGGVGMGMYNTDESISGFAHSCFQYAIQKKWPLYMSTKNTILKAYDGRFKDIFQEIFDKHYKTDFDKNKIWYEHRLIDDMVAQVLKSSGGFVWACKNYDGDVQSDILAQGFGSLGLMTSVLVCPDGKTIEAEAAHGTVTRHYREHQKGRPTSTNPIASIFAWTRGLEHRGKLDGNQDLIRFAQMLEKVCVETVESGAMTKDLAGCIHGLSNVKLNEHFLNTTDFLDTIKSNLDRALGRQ
Chain of TF1 IDH2R140Q (P48735 40-452 R140Q): as above
Chain of mIDH1R132H (O75874 whole entry R132H): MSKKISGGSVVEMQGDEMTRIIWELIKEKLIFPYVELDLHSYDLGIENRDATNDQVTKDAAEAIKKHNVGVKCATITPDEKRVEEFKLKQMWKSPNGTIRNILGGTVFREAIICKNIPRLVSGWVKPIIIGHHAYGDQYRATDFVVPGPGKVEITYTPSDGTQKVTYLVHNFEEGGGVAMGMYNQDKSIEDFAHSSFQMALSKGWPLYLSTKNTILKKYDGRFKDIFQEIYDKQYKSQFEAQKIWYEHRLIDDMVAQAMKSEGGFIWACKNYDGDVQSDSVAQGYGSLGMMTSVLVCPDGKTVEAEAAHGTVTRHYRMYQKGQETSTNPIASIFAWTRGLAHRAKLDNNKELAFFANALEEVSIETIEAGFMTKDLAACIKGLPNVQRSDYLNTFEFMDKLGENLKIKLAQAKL

IC50 (mIDH2R140Q) [nM]	IC50 (TF1 IDH2R140Q) [nM]	IC50 (mIDH1R132H) [nM]	Compound
1680	282	4	C=CC(=O)N1CCN(C2CCCCCCCN3C(=O)OCc4cnc(nc43)N[C@@H](C)c3ccc2cc3)CC1 (stereo partly drawn) [Example 4, (3S)-5-(4-acryloylpiperazin-1-yl)-3-methyl-1^1,1^4-dihydro-1^2H-2-aza-1(7,1)-pyrimido[4,5-d][1,3]oxazina-4(1,4)-benzenacyclododecaphan-1^2-one]
1440	277	3.3	C=CC(=O)N1CCN(C2CCCC/C=C/CN3C(=O)OCc4cnc(nc43)N[C@@H](C)c3ccc2cc3)CC1 (stereo partly drawn) [Example 3, (3S,E)-5-(4-acryloylpiperazin-1-yl)-3-methyl-1^1,1^4-dihydro-1^2H-2-aza-1(7,1)-pyrimido[4,5-d][1,3]oxazina-4(1,4)-benzenacyclododecaphan-10-en-1^2-one]
